In brackets after ≈: the same amount, converted by molar mass.

The results in this text go back to US10471046B2, “Method for treating, preventing, or reducing the risk of skin infection” (Melinta Subsidiary Corp., priority 2014, dated 2019).

The subject of this experiment is S. aureus. Put plainly: Minimum inhibitory concentrations (MICs) for S. aureus of exemplary compounds (Table 2). Format: cell-based. The note with it: Staphylococcus aureus, minimum inhibitory concentrations for S. aureus; read-out: MICs. Put shortly:
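MICs (μg/mL) against S. aureus come from microtiter-tray dilution susceptibility testing per NCCLS M7-A5, comparing growth with and without compound.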
Regarding `CC(=O)NC[C@H]1CN(c2ccc(-c3ccc(CN(C)Cc4ccoc4)cc3)c(F)c2)C(=O)O1` [Compound 4061, N-(3-{2-Fluoro-4′-[(furan-3-ylmethyl-methyl-amino)-methyl]-biphenyl-4-yl}-2-oxo-oxazolidin-5-(S)-ylmethyl)-acetamide], the MIC stood at 4 µg/mL (≈ 8.86 µM). The value for `CC(=O)NC[C@H]1CN(c2ccc(-c3ccc(CNCc4ccc(N(C)C)cc4)cc3)c(F)c2)C(=O)O1` [Compound 4062, N-(3-{4′-[(4-Dimethylamino-benzylamino)-methyl]-2-fluoro-biphenyl-4-yl}-2-oxo-oxazolidin-5-(S)-ylmethyl)-acetamide] was 2 µg/mL (≈ 4.08 µM). In the case of `CC(=O)NC[C@H]1CN(c2ccc(-c3ccc(CNCc4ccc(Cl)cc4)cc3)c(F)c2)C(=O)O1` [Compound 4063, N-(3-{4′-[(4-Chloro-benzylamino)-methyl]-2-fluoro-biphenyl-4-yl}-2-oxo-oxazolidin-5-(S)-ylmethyl)-acetamide], the MIC came to 2 µg/mL (≈ 4.15 µM). Consider `CC(=O)NC[C@H]1CN(c2ccc(-c3ccc(CNCc4ccc(Cl)cc4Cl)cc3)c(F)c2)C(=O)O1` [Compound 4064, N-(3-{4′-[(2,4-Dichloro-benzylamino)-methyl]-2-fluoro-biphenyl-4-yl}-2-oxo-oxazolidin-5-(S)-ylmethyl)-acetamide], for which the MIC came to 2 µg/mL (≈ 3.87 µM). The figure for `CC(=O)NC[C@H]1CN(c2ccc(-c3ccc(CNCc4cccc5cnccc45)cc3)c(F)c2)C(=O)O1` [Compound 4065, N-[3-(2-Fluoro-4′-{[(isoquinolin-5-ylmethyl)-amino]-methyl}-biphenyl-4-yl)-2-oxo-oxazolidin-5-(S)-ylmethyl]-acetamide] is 2 µg/mL (≈ 4.01 µM).

For the molecule `CC(=O)NC[C@H]1CN(c2ccc(-c3ccc(CNCc4cnc[nH]4)cc3)c(F)c2)C(=O)O1` [Compound 4066, N-[3-(2-Fluoro-4′-{[(3H-imidazol-4-ylmethyl)-amino]-methyl}-biphenyl-4-yl)-2-oxo-oxazolidin-5-(S)-ylmethyl]-acetamide], the MIC was determined as 8 µg/mL (≈ 18.3 µM).

With `CC(=O)NC[C@H]1CN(c2ccc(-c3ccc(CN(C)Cc4cnc[nH]4)cc3)c(F)c2)C(=O)O1` [Compound 4067, N-[3-(2-Fluoro-4′-{[(3H-imidazol-4-ylmethyl)-methyl-amino]-methyl}-biphenyl-4-yl)-2-oxo-oxazolidin-5-(S)-ylmethyl]-acetamide], the MIC was found to be 4 µg/mL (≈ 8.86 µM).

Consider `CC(=O)NC[C@H]1CN(c2ccc(-c3ccc(CN(Cc4c[nH]cn4)Cc4cnc[nH]4)cc3)c(F)c2)C(=O)O1` [Compound 4068, N-[3-(2-Fluoro-4′-{[(1H-imidazol-4-ylmethyl)-(3H-imidazol-4-ylmethyl)-amino]-methyl}-biphenyl-4-yl)-2-oxo-oxazolidin-5-(S)-ylmethyl]-acetamide], for which the MIC was 128 µg/mL (≈ 247 µM). The figure for `CC(=O)NC[C@H]1CN(c2ccc(-c3ccc(CNCc4ccc([N+](=O)[O-])o4)cc3)c(F)c2)C(=O)O1` [Compound 4069, N-[3-(2-Fluoro-4′-{[(5-nitro-furan-2-ylmethyl)-amino]-methyl}-biphenyl-4-yl)-2-oxo-oxazolidin-5-(S)-ylmethyl]-acetamide] is 1 µg/mL (≈ 2.07 µM); for `CC(=O)NC[C@H]1CN(c2ccc(-c3ccc(CNCc4cccc(C#N)c4)cc3)c(F)c2)C(=O)O1` [Compound 4070, N-(3-{4′-[(3-Cyano-benzylamino)-methyl]-2-fluoro-biphenyl-4-yl}-2-oxo-oxazolidin-5-(S)-ylmethyl)-acetamide] it is 1 µg/mL (≈ 2.12 µM); for `CC(=O)NC[C@H]1CN(c2ccc(-c3ccc(CNCc4ccc5ncccc5c4)cc3)c(F)c2)C(=O)O1` [Compound 4071, N-[3-(2-Fluoro-4′-{[(quinolin-6-ylmethyl)-amino]-methyl}-biphenyl-4-yl)-2-oxo-oxazolidin-5-(S)-ylmethyl]-acetamide] it is 2 µg/mL (≈ 4.01 µM).

Take `CC(=O)NC[C@H]1CN(c2ccc(-c3ccc(CNCc4cccc(C)n4)cc3)c(F)c2)C(=O)O1` [Compound 4072, N-[3-(2-Fluoro-4′-{[(6-methyl-pyridin-2-ylmethyl)-amino]-methyl}-biphenyl-4-yl)-2-oxo-oxazolidin-5-(S)-ylmethyl]-acetamide]: the MIC amounted to 2 µg/mL (≈ 4.32 µM).

As for `CC(=O)NC[C@H]1CN(c2ccc(-c3ccc(CNCc4ccncc4)nc3)c(F)c2)C(=O)O1` [Compound 4073, N-{3-[3-Fluoro-4-(6-{[(pyridin-4-ylmethyl)-amino]-methyl}-pyridin-3-yl)-phenyl]-2-oxo-oxazolidin-5-(S)-ylmethyl}-acetamide], the MIC stood at 2 µg/mL (≈ 4.45 µM). The value for `CC(=O)NC[C@H]1CN(c2ccc(-c3ccc(CNCc4nccs4)cc3)c(F)c2)C(=O)O1` [Compound 4074, N-[3-(2-Fluoro-4′-{[(thiazol-2-ylmethyl)-amino]-methyl}-biphenyl-4-yl)-2-oxo-oxazolidin-5-(S)-ylmethyl]-acetamide] was 1 µg/mL (≈ 2.2 µM). Take `CC(=O)NC[C@H]1CN(c2ccc(-c3ccc(CNCc4ccc(CO)o4)cc3)c(F)c2)C(=O)O1` [Compound 4075, N-[3-(2-Fluoro-4′-{[(5-hydroxymethyl-furan-2-ylmethyl)-amino]-methyl}-biphenyl-4-yl)-2-oxo-oxazolidin-5-(S)-ylmethyl]-acetamide]: the MIC came out at 2 µg/mL (≈ 4.28 µM). The figure for `CC(=O)NC[C@H]1CN(c2ccc(-c3ccc(CNCc4nccn4C)cc3)c(F)c2)C(=O)O1` [Compound 4076, N-[3-(2-Fluoro-4′-{[(1-methyl-1H-imidazol-2-ylmethyl)-amino]-methyl}-biphenyl-4-yl)-2-oxo-oxazolidin-5-(S)-ylmethyl]-acetamide] is 4 µg/mL (≈ 8.86 µM). The value for `CC(=O)NC[C@H]1CN(c2ccc(-c3ccc(CNCc4csc5ccccc45)cc3)c(F)c2)C(=O)O1` [Compound 4077, N-[3-(4′-{[(Benzo[b]thiophen-3-ylmethyl)-amino]-methyl}-2-fluoro-biphenyl-4-yl)-2-oxo-oxazolidin-5-(S)-ylmethyl]-acetamide] was 16 µg/mL (≈ 31.8 µM); that for `CC(=O)NC[C@H]1CN(c2ccc(-c3ccc(CNCc4ccc(Br)o4)cc3)c(F)c2)C(=O)O1` [Compound 4078, N-[3-(4′-{[(5-Bromo-furan-2-ylmethyl)-amino]-methyl}-2-fluoro-biphenyl-4-yl)-2-oxo-oxazolidin-5-(S)-ylmethyl]-acetamide] was 2 µg/mL (≈ 3.87 µM).

`CC(=O)NC[C@H]1CN(c2ccc(-c3ccc(CNCCCn4ccnc4)cc3)c(F)c2)C(=O)O1` [Compound 4079, N-(3-{2-Fluoro-4′-[(3-imidazol-1-yl-propylamino)-methyl]-biphenyl-4-yl}-2-oxo-oxazolidin-5-(S)-ylmethyl)-acetamide]: the MIC stood at 32 µg/mL (≈ 68.7 µM). As for `CC(=O)NC[C@H]1CN(c2ccc(-c3ccc(C(=N)NCc4ccncc4)cc3)c(F)c2)C(=O)O1` [Compound 4080, N-{3-[2-Fluoro-4′-(N-pyridin-4-ylmethyl-carbamimidoyl)-biphenyl-4-yl]-2-oxo-oxamlidin-5-(S)-ylmethyl}-acetamide], the MIC worked out at 128 µg/mL (≈ 277 µM). The value for `CC(=O)NC[C@H]1CN(c2ccc(-c3ccc(CNCc4ccc(C)o4)cc3)c(F)c2)C(=O)O1` [Compound 4081, N-[3-(2-Fluoro-4′-{[(5-methyl-furan-2-ylmethyl)-amino]-methyl}-biphenyl-4-yl)-2-oxo-oxazolidin-5-(S)-ylmethyl]-acetamide] was 2 µg/mL (≈ 4.43 µM).
